Four compounds from PMC9704608, “Anti-leishmanial physalins—Phytochemical investigation, in vitro evaluation against clinical and MIL-resistant L. tropica strains and in silico studies” (PLOS ONE, 2022) can be followed below.

Converted amounts (≈) assume the structure as drawn. Where two headings read alike, the source gives them in different places.

Series [1] concerns L. major promastigotes. Nature of the series: Promastigote growth inhibition assay (MTT), L. major. It is filed as cell-based, Leishmania major. As to conditions: for anti-leishmanial activity against promastigotes of L. major (in words): in vitro; for IC50: Leishmania major, read-out: L. major IC50 (μM± SD). The method, then:
(§1) L. major and L. tropica (Clinical isolates) promastigotes were grown at […] in RPMI-1640 (Sigma) medium containing 10% of heat-inactivated (56°C for 30 min) fetal bovine serum. Cell viability was initially evaluated by wet mount method by observing the live cells under compound microscope. Parasite growth was assessed by counting live / motile promastigotes in a Neubauer chamber. Viable cell count was used for the further experimentations (treatments).
(§2) The promastigotes in their log phase were used in 96-well plates. 1 × 10^6 wild-type and resistant promastigotes were dispensed in 96 96-well plates, and incubated with tested compounds at a range concentration of 200–10 μM at 27°C for 72 h. After incubation of 72 h, MTT dye (3-(4,5-dimethylthiazol-2-yl)-2,5-diphenyl-2H-tetrazolium bromide) was added and further incubate it for 3–4 h. Amphotericin B, pantamidine and miltefosine were used as the positive control, untreated promastigotes were used as negative control moreover DMSO control was also added in the study as a stock solution of the compounds that were prepared in DMSO. All the experiments were performed in triplicates. After completion of the experiment the absorbance by Multiskan ascent plate reader at 452 nm and percent inhibition was calculated by the following formula.
(§3) Cytotoxic concentration (%) = [100- (Absorbance of test)/ (Absorbance of solvent control) ×100] %.

For series [2], the system named is L. tropica promastigotes. Nature of the series: Promastigote growth inhibition assay (MTT), L. tropica clinical isolates. It counts as cell-based, Leishmania tropica. The settings on record: for IC50: Leishmania tropica, read-out: L. tropica IC50 (μM± SD). The method, then: as §1, §2, §3
In series [3] the test system is MIL-resistant L. tropica promastigotes. Briefly: Growth inhibition assay (MTT) against MIL-resistant line. It counts as cell-based, Leishmania tropica. As to conditions: 72 h; for MIL Resistant L. tropica IC50 (μM± SD): miltefosine-unresponsive strain, promastigotes. On the procedure: as §2, §3
Promastigote cultures tL. tropica (Clinical isolates) were maintained at 26°C in RPMI-1640 medium containing 15% FBS and 1% penicillin–streptomycin mixture.
Generation of miltefosine-unresponsive strain was carried under high MIL pressure by in vitro passage with a stepwise increase in the MIL concentration. At each step, parasites were cultured and passaged every 3–4 days at an initial concentration of 5x10^5 promastigotes/mL in order to achieve -stable growth as compared to the wildtype isolate. Growth rates were measured for resistant populations and compared with the WT strain. Parasites were counted at an initial concentration of 5x10^5 parasites/mL and growth was measured daily using a Neubauer chamber until the population reached the stationary phase. Furthermore, the fluorescence microscopic investigations via DAPI stain were also carried out to supplement the study.

A short description of series [4]: Cytotoxicity (MTT) against BJ cell line. It is filed as cell-based, human. As to conditions: pure compounds; human fibroblast, 48 h; read-out: BJ cell line CC50 (μM± SD). The method, then:
(§4) The cytotoxicity of the test compounds against normal cell lines was evaluated through MTT (3-[4, 5-dimethylthiazole-2-yl]-2, 5-diphenyl-tetrazolium bromide] colorimetric assay in 96-well flat-bottomed microplates. The 3T3 (mouse fibroblast) and BJ (human fibroblast) were cultured Dulbecco’s Modified Eagle Medium, supplemented with 5% of fetal bovine serum (FBS), 100 IU/mL of penicillin and 100 μg/mL of streptomycin in 75 cm2 flasks, and then incubated in 5% CO2 incubator at 37°C. The growing cells were counted by using a haemocytometer, and diluted with the particular medium. The 5x10^4 cells/mL of the cell culture was prepared, and a sample […] was introduced into each well. […] After 48 hours, 200 μL MTT (0.5 mg/mL) was added, and the incubation was further continued for 4 hrs. After that time, 100 μL of DMSO was added to each well. The absorbance was measured using a micro plate reader (Spectra Max Plus, Molecular Devices, CA, USA) at 570 nm for the extent of MTT reduction to formazan within the cells. The cytotoxicity was recorded as CC50 against cells by using Soft- Max Pro software. Doxorubicin and cycloheximide were used as positive control. The experiments were run in triplicate.

The subject of series [5] is BJ (human fibroblast) cells. Briefly: Cytotoxicity (MTT) against BJ cell line. The settings on record: for IC50: Homo sapiens, Fibroblast, cytotoxicity of compounds 1-9, read-out: BJ (human fibroblast) IC50 (μM± SD). It counts as cell-based. On the procedure: as §4
Series [6] is described as follows: Cytotoxicity (MTT) against 3T3 cell line. The settings on record: pure compounds; mouse fibroblast, 48 h; read-out: 3T3 Cell line CC50 (μM± SD). It is filed as cell-based, mouse. On the procedure:
(§5) The cytotoxicity of the test compounds against normal cell lines was evaluated through MTT (3-[4, 5-dimethylthiazole-2-yl]-2, 5-diphenyl-tetrazolium bromide] colorimetric assay in 96-well flat-bottomed microplates. The 3T3 (mouse fibroblast) and BJ (human fibroblast) were cultured Dulbecco’s Modified Eagle Medium, supplemented with 5% of fetal bovine serum (FBS), 100 IU/mL of penicillin and 100 μg/mL of streptomycin in 75 cm2 flasks, and then incubated in 5% CO2 incubator at 37°C. The growing cells were counted by using a haemocytometer, and diluted with the particular medium. The 5x10^4 cells/mL of the cell culture was prepared, and a sample […] was introduced into each well. The medium was removed after overnight incubation, and 200 μL of fresh medium was added with different concentrations of compounds (1–30 μM). After 48 hours, 200 μL MTT (0.5 mg/mL) was added, and the incubation was further continued for 4 hrs. After that time, 100 μL of DMSO was added to each well. The absorbance was measured using a micro plate reader (Spectra Max Plus, Molecular Devices, CA, USA) at 570 nm for the extent of MTT reduction to formazan within the cells. The cytotoxicity was recorded as CC50 against cells by using Soft- Max Pro software. Doxorubicin and cycloheximide were used as positive control. The experiments were run in triplicate.

For series [7], the system named is 3T3 (mouse fibroblast) cells. Briefly: Cytotoxicity (MTT) against 3T3 cell line. As to conditions: for IC50: Mus musculus, Fibroblast, cytotoxicity of compounds 1-9, read-out: 3T3 (mouse fibroblast) IC50 (μM ± SD); for L. tropica SI (CC50/ IC50): CC50 3T3 cell line / IC50 L. tropica. It counts as cell-based. On the procedure: as §5
In series [8] the test system is BJ (human fibroblast) cells. Briefly: Cytotoxicity (MTT) against BJ cell line. It counts as cell-based. The settings on record: cytotoxicity of extracts and fractions, read-out: BJ (human fibroblast) IC50 (μg/ml ± SD).
For series [9], the system named is 3T3 (mouse fibroblast) cells. Briefly: Cytotoxicity (MTT) against 3T3 cell line. It counts as cell-based. The settings on record: cytotoxicity of extracts and fractions, read-out: 3T3 (mouse fibroblast) IC50 (μg/ml ± SD).
Where [10] appears, read: pure compounds, standard drugs, promastigotes, 72 h.
Where [11] appears, read: pure compounds, standard drugs, promastigotes, clinical isolate, 72 h.
Where [12] appears, read: CC50 3T3 mouse fibroblast cell line / IC50 L. major.
The mark [13] stands for this setting: CC50 BJ fibroblast cell line / IC50 L. major.
The mark [14] stands for this setting: CC50 3T3 mouse fibroblast cell line / IC50 L. tropica.
Where [15] appears, read: CC50 BJ fibroblast cell line / IC50 L. tropica.

Consider `CCOC12CC=CC(=O)C1(C)C1CCC3(O)C(=O)OC4(C)C5CC6(C)C(COC7(OC34C6C7=O)C1CC2O)C(=O)O5` (stereo not drawn) [Compound 4, 5α-ethoxy-6ß-hydroxy-5,6-dihydrophysalin B], for which the “anti-leishmanial activity against promastigotes of L. major (in words)” value in series [1] is on record as “no significant activity”. For the same compound, the “L. major IC50 (μM± SD)” value in series [1] (setting [10]) is listed as “Inactive”. In [2] (setting [11]), the “L. tropica IC50 (μM± SD)” value is “Inactive”. Besides, the IC50 in series [3] (Leishmania tropica, read-out: MIL Resistant L. tropica IC50 (μM± SD)) is 74.7 ± 0.81 µM; in series [5] it was < 50 µM; in series [7], 19.6 ± 0.8 µM. Moreover, the CC50 (commonly the concentration at which the toxic effect on the cells reaches its halfway point) in series [4] is 14.2 ± 0.8 µM; in [6], 19.6 ± 0.8 µM.

Regarding `CC12CC3OC(=O)C1COC14OC5(C2C1=O)C(O)(CCC1C4CC(O)C2(Cl)CC=CC(=O)C12C)C(=O)OC35C` (stereo not shown) [Compound 5, Physalin H], the “L. major SI (CC50/ IC50)” value in [1] (setting [12]) amounted to 0.119; in [1] (setting [13]), 3.11. Also, the IC50 in series [1] (setting [10]) came out at 3.34 ± 0.64 µM; in series [2] (setting [11]) it was 9.59 ± 0.27 µM; in series [5], 14.2 ± 0.8 µM; in series [7], 0.4 ± 0.07 µM. Further, the “L. tropica SI (CC50/ IC50)” value is listed as 0.041 in [2] (setting [14]), 1.08 in [2] (setting [15]), 1.08 in series [5] (CC50 BJ cell line / IC50 L. tropica) and 0.041 in series [7]. In addition, the “MIL Resistant L. tropica IC50 (μM± SD)” value in series [3] was “inactive”. Further, the cytotoxic concentration (CC50) in [4] stood at 10.4 ± 1 µM; in [6] it was 0.4 ± 0.07 µM.

On to `C=C1C(=O)OC2CC1(C)C1C(=O)C3(O)OC14C(O)(CCC1C3CC3OC35CC=CC(=O)C15C)C(=O)OC24C` (stereo not drawn) [Compound 6, 5β, 6β-epoxyphysalin C], for which the “L. major SI (CC50/ IC50)” value in [1] (setting [12]) came out at 0.007; in series [1] (setting [13]), 1.19; in [5] (CC50 BJ cell line / IC50 L. major), 1.19. Also, the IC50 in series [1] (setting [10]) came to 84.8 ± 1.56 µM; in series [2] (setting [11]) it was 23.8 ± 1.1 µM; in series [5] it was 10.4 ± 1 µM; in series [7], 0.6 ± 0.04 µM. The “anti-leishmanial activity against promastigotes of L. major (in words)” value in series [1] was “no significant activity”. In addition, the “L. tropica SI (CC50/ IC50)” value in series [2] (setting [14]) worked out at 0.025; in [2] (setting [15]), 4.20; in series [7] it was 0.025. The “MIL Resistant L. tropica IC50 (μM± SD)” value in series [3] was “inactive”. Besides, the cytotoxic concentration (CC50) in series [4] is > 100 µM; in series [6], 0.6 ± 0.04 µM.

In the case of `COc1cccc2c1C(=O)c1c(O)c3c(c(O)c1C2=O)C[C@@](O)(C(=O)CO)C[C@@H]3O[C@H]1C[C@H](N)[C@H](O)[C@H](C)O1` [Doxorubicin], the IC50 in series [8] and in series [9] was 0.1 ± 0.02 µg/mL (≈ 0.184 µM) in each case.
